In the NIST ThermoML archive (doi:10.1021/acs.jced.5b00259):

Test: xn = mol fraction of the nth substance listed
Conditions: 100 kPa, Liquid

CC[NH+]=C(N(C)C)N(C)C.O=S(=O)([N-]S(=O)(=O)C(F)(F)F)C(F)(F)F + CCCO
Conditions | mass density [kg/m3] | viscosity [mPa·s]
293.15 K, x1 = 0.1024 | 997.39 | 4.462
293.15 K, x1 = 0.2019 | 1114.71 | 7.27
293.15 K, x1 = 0.2973 | 1192.09 | 10.87
293.15 K, x1 = 0.4011 | 1252.75 | 16.1
293.15 K, x1 = 0.4988 | 1295.36 | 21.63
293.15 K, x1 = 0.5962 | 1328.36 | 28.19
293.15 K, x1 = 0.6997 | 1356.59 | 36.71
293.15 K, x1 = 0.7931 | 1377.81 | 45.87
293.15 K, x1 = 0.9014 | 1398.72 | 58.37
293.15 K, x1 = 1 | 1414.89 | 74.61
298.15 K, x1 = 0.1024 | 992.96 | 3.868
298.15 K, x1 = 0.2019 | 1110.07 | 6.213
298.15 K, x1 = 0.2973 | 1187.4 | 9.224
298.15 K, x1 = 0.4011 | 1247.97 | 13.49
298.15 K, x1 = 0.4988 | 1290.53 | 18.01
298.15 K, x1 = 0.5962 | 1323.53 | 23.23
298.15 K, x1 = 0.6997 | 1351.73 | 29.87
298.15 K, x1 = 0.7931 | 1372.97 | 37.15
298.15 K, x1 = 0.9014 | 1393.86 | 46.91
298.15 K, x1 = 1 | 1410.03 | 58.86
303.15 K, x1 = 0.1024 | 988.5 | 3.38
303.15 K, x1 = 0.2019 | 1105.48 | 5.362
303.15 K, x1 = 0.2973 | 1182.67 | 7.898
303.15 K, x1 = 0.4011 | 1243.16 | 11.48
303.15 K, x1 = 0.4988 | 1285.7 | 15.21
303.15 K, x1 = 0.5962 | 1318.7 | 19.43
303.15 K, x1 = 0.6997 | 1346.89 | 24.76
303.15 K, x1 = 0.7931 | 1368.14 | 30.48
303.15 K, x1 = 0.9014 | 1389.02 | 38.17
303.15 K, x1 = 1 | 1405.19 | 47.27
308.15 K, x1 = 0.1024 | 984.03 | 2.972
308.15 K, x1 = 0.2019 | 1100.81 | 4.667
308.15 K, x1 = 0.2973 | 1177.93 | 6.831
308.15 K, x1 = 0.4011 | 1238.35 | 9.85
308.15 K, x1 = 0.4988 | 1280.88 | 12.98
308.15 K, x1 = 0.5962 | 1313.87 | 16.47
308.15 K, x1 = 0.6997 | 1342.09 | 20.85
308.15 K, x1 = 0.7931 | 1363.32 | 25.37
308.15 K, x1 = 0.9014 | 1384.21 | 31.53
308.15 K, x1 = 1 | 1400.38 | 38.71
313.15 K, x1 = 0.1024 | 979.55 | 2.63
313.15 K, x1 = 0.2019 | 1096.13 | 4.093
313.15 K, x1 = 0.2973 | 1173.18 | 5.966
313.15 K, x1 = 0.4011 | 1233.59 | 8.525
313.15 K, x1 = 0.4988 | 1276.07 | 11.21
313.15 K, x1 = 0.5962 | 1309.06 | 14.12
313.15 K, x1 = 0.6997 | 1337.29 | 17.73
313.15 K, x1 = 0.7931 | 1358.51 | 21.42
313.15 K, x1 = 0.9014 | 1379.42 | 26.43
313.15 K, x1 = 1 | 1395.59 | 32.2
318.15 K, x1 = 0.1024 | 975.03 | 2.34
318.15 K, x1 = 0.2019 | 1091.46 | 3.684
318.15 K, x1 = 0.2973 | 1168.42 | 5.248
318.15 K, x1 = 0.4011 | 1228.78 | 7.433
318.15 K, x1 = 0.4988 | 1271.27 | 9.743
318.15 K, x1 = 0.5962 | 1304.24 | 12.24
318.15 K, x1 = 0.6997 | 1332.49 | 15.26
318.15 K, x1 = 0.7931 | 1353.72 | 18.28
318.15 K, x1 = 0.9014 | 1374.63 | 22.43
318.15 K, x1 = 1 | 1390.8 | 27.09
323.15 K, x1 = 0.1024 | 970.48 | 2.094
323.15 K, x1 = 0.2019 | 1086.71 | 3.283
323.15 K, x1 = 0.2973 | 1163.66 | 4.64
323.15 K, x1 = 0.4011 | 1223.97 | 6.437
323.15 K, x1 = 0.4988 | 1266.46 | 8.553
323.15 K, x1 = 0.5962 | 1299.4 | 10.7
323.15 K, x1 = 0.6997 | 1327.7 | 13.27
323.15 K, x1 = 0.7931 | 1348.94 | 15.77
323.15 K, x1 = 0.9014 | 1369.87 | 19.26
323.15 K, x1 = 1 | 1386.03 | 23.14

CC[NH+]=C(N(C)C)N(C)C.O=S(=O)([N-]S(=O)(=O)C(F)(F)F)C(F)(F)F + CCO
Conditions | mass density [kg/m3] | viscosity [mPa·s]
293.15 K, x1 = 0.1006 | 1023.01 | 2.873
293.15 K, x1 = 0.2004 | 1148.25 | 5.27
293.15 K, x1 = 0.3001 | 1225.91 | 8.21
293.15 K, x1 = 0.4005 | 1278.7 | 13.14
293.15 K, x1 = 0.5018 | 1316.97 | 19.52
293.15 K, x1 = 0.6011 | 1345.48 | 27.48
293.15 K, x1 = 0.6999 | 1367.71 | 36.42
293.15 K, x1 = 0.802 | 1386.71 | 47.47
293.15 K, x1 = 0.892 | 1400.66 | 59.17
293.15 K, x1 = 1 | 1414.89 | 74.61
298.15 K, x1 = 0.1006 | 1018.29 | 2.557
298.15 K, x1 = 0.2004 | 1143.37 | 4.596
298.15 K, x1 = 0.3001 | 1221.07 | 7.081
298.15 K, x1 = 0.4005 | 1273.82 | 11.13
298.15 K, x1 = 0.5018 | 1312.1 | 16.32
298.15 K, x1 = 0.6011 | 1340.6 | 22.71
298.15 K, x1 = 0.6999 | 1362.79 | 29.85
298.15 K, x1 = 0.802 | 1381.82 | 38.34
298.15 K, x1 = 0.892 | 1395.79 | 47.22
298.15 K, x1 = 1 | 1410.03 | 58.86
303.15 K, x1 = 0.1006 | 1013.56 | 2.289
303.15 K, x1 = 0.2004 | 1138.51 | 4.049
303.15 K, x1 = 0.3001 | 1216.29 | 6.157
303.15 K, x1 = 0.4005 | 1268.94 | 9.534
303.15 K, x1 = 0.5018 | 1307.24 | 13.8
303.15 K, x1 = 0.6011 | 1335.71 | 19.1
303.15 K, x1 = 0.6999 | 1357.94 | 24.85
303.15 K, x1 = 0.802 | 1376.95 | 31.52
303.15 K, x1 = 0.892 | 1390.94 | 38.37
303.15 K, x1 = 1 | 1405.19 | 47.27
308.15 K, x1 = 0.1006 | 1008.82 | 2.058
308.15 K, x1 = 0.2004 | 1133.65 | 3.587
308.15 K, x1 = 0.3001 | 1211.51 | 5.391
308.15 K, x1 = 0.4005 | 1264.09 | 8.252
308.15 K, x1 = 0.5018 | 1302.36 | 11.95
308.15 K, x1 = 0.6011 | 1330.83 | 16.25
308.15 K, x1 = 0.6999 | 1353.07 | 20.96
308.15 K, x1 = 0.802 | 1372.11 | 26.35
308.15 K, x1 = 0.892 | 1386.12 | 31.73
308.15 K, x1 = 1 | 1400.38 | 38.71
313.15 K, x1 = 0.1006 | 1004.07 | 1.861
313.15 K, x1 = 0.2004 | 1128.85 | 3.213
313.15 K, x1 = 0.3001 | 1206.71 | 4.757
313.15 K, x1 = 0.4005 | 1259.25 | 7.206
313.15 K, x1 = 0.5018 | 1297.45 | 10.32
313.15 K, x1 = 0.6011 | 1325.97 | 13.99
313.15 K, x1 = 0.6999 | 1348.22 | 17.94
313.15 K, x1 = 0.802 | 1367.28 | 22.3
313.15 K, x1 = 0.892 | 1381.31 | 26.65
313.15 K, x1 = 1 | 1395.59 | 32.2
318.15 K, x1 = 0.1006 | 999.26 | 1.689
318.15 K, x1 = 0.2004 | 1124.03 | 2.884
318.15 K, x1 = 0.3001 | 1201.81 | 4.227
318.15 K, x1 = 0.4005 | 1254.43 | 6.344
318.15 K, x1 = 0.5018 | 1292.57 | 8.977
318.15 K, x1 = 0.6011 | 1321.11 | 12.15
318.15 K, x1 = 0.6999 | 1343.4 | 15.52
318.15 K, x1 = 0.802 | 1362.45 | 19.11
318.15 K, x1 = 0.892 | 1376.52 | 22.55
318.15 K, x1 = 1 | 1390.8 | 27.09
323.15 K, x1 = 0.1006 | 994.44 | 1.515
323.15 K, x1 = 0.2004 | 1119.21 | 2.606
323.15 K, x1 = 0.3001 | 1197.01 | 3.78
323.15 K, x1 = 0.4005 | 1249.62 | 5.627
323.15 K, x1 = 0.5018 | 1287.74 | 7.837
323.15 K, x1 = 0.6011 | 1316.28 | 10.65
323.15 K, x1 = 0.6999 | 1338.59 | 13.58
323.15 K, x1 = 0.802 | 1357.63 | 16.54
323.15 K, x1 = 0.892 | 1371.74 | 19.32
323.15 K, x1 = 1 | 1386.03 | 23.14
